Reference: patent US12679805B2, “Bioactive substance exhibiting antimalarial activity, and use for same” (RIKEN, priority 2021, dated 2026)
≈ marks a conversion by molar mass, not a printed value. Where “and” joins values, the source holds several entries; their conditions need not be identical. Equal entries are not always repeated.

Legend:
[1] = test system: Hela cells; assay: Cytotoxicity (growth inhibitory activity), HeLa cells; format: cell-based; conditions: for IC50: Homo sapiens
Text: (§1) Subsequently, the cytotoxicity of DHLC was examined. More specifically, the activity of DHLC to various types of cancer cells (Hela cells, HL-60 cells, MKN74 cells, NB-1 cells, T98G cells) were examined.

[2] = test system: HL-60 cells; assay: Cytotoxicity (growth inhibitory activity), HL-60 cells; format: cell-based; conditions: for IC50: Homo sapiens
Text: as §1

[3] = test system: Plasmodium falciparum; conditions: reported in Non Patent Literature 1; cited from earlier work
[4] = test system: wild-type Plasmodium falciparum (pf3D7 strain); assay: Antimalarial activity, pLDH Malstat analysis, wild-type Plasmodium falciparum (pf3D7 strain); format: cell-based
Experimental: Specifically, first, a wild-type malarial parasite, Plasmodium falciparum (pf3D7 strain) was cultured in a human type-A Rh+ erythrocyte-containing solution prepared such that the hematocrit level was 3% in a hypoxic condition (O2 concentration: 5%, CO2 concentration: 5%). A culture medium used herein was a complete medium (Gibco, RPMI 1640 medium) containing 25 mM N-(2-hydroxyethyl)piperazine-N′-2-ethanesulfonic acid (HEPES), 10 […] glucose, 5 μg/mL gentamicin and 10% bovine serum albumin. Thereafter, DHLC solutions having 16 different concentrations within the range of 0.015 nM to 500 nM as shown in Table 2 were prepared using dimethyl sulfoxide (DMSO). Subsequently, to each of the wells of a 96 well microplate, 100 μl of a culture solution containing Plasmodium falciparum (pf3D7 strain) cultured in accordance with a method as mentioned above, was added, and then, 0.5 μl of a DHLC solution different in concentration was added to each well. Three sample sets were prepared in the same manner by adding 16 DHLC solutions different in concentration to wells, and then, allowed to stand still at 37° C. for 72 hours to expose Plasmodium falciparum (pf3D7 strain) to DHLC. Note that, each well contains the complete medium (RPMI medium), and the malarial parasite concentration was 0.3% and hematocrit level was 2%. Thereafter, the 96 well microplates containing samples were frozen at −80° C. overnight, and then, thawed at room temperature to hemolyze red blood cells. Lactate dehydrogenase (pLDH), which is an intracellular metabolic enzyme of malarial parasite, in the samples contained in individual wells, was stained with a Malstat reagent (Flow Inc.) in accordance with the protocol of Malstat analysis (Am. J. Trop. Med. Hyg. 48(6), 1993, pp. 739-741) known in the art and the absorbance thereof was measured at 620 nm. Based on the results, the infection rates (%) of cells with malarial parasite, at different concentrations of DHLC were calculated. Note that, a positive control used herein was a sample prepared by adding a solution prepared by diluting an existing antimalarial drug, i.e., chloroquine diphosphate, with distilled water, to wild-type Plasmodium falciparum (pf3D7 strain). A negative control used herein was a sample prepared by adding a solution prepared by diluting DMSO with distilled water, to a wild-type Plasmodium falciparum (pf3D7 strain). For measuring a background value, an erythrocyte-containing solution not infected with Plasmodium falciparum, was used.

[5] = test system: drug-resistant Plasmodium falciparum (K1); assay: Antimalarial activity against chloroquine-resistant Plasmodium falciparum (K1); format: cell-based; conditions: FIG. 1
[6] = test system: MKN74 cells; assay: Cytotoxicity (growth inhibitory activity), MKN74 cells; format: cell-based
Text: as §1

[7] = test system: NB-1 cells; assay: Cytotoxicity (growth inhibitory activity), NB-1 cells; format: cell-based; conditions: Homo sapiens, NB1
Text: as §1

[8] = test system: T98G cells; assay: Cytotoxicity (growth inhibitory activity), T98G cells; format: cell-based
Text: as §1

## C\C=C(/C=C(C)/C=C/C=C/C=C(\C)C(=O)[C@H]1C(=O)N[C@]2(O)CCO[C@H]12)C(=O)O [Demethyl lucilactaene]
[1]
  growth inhibitory activity (IC50 value): >30 µg/mL
[2]
  growth inhibitory activity (IC50 value): >30 µg/mL

## C\C=C(/C=C(C)/C=C/C=C/C=C(\C)C(=O)[C@H]1C(=O)N[C@]2(O)CCO[C@H]12)C(=O)OC [Lucilactaene]
[1]
  IC50: 10 µg/mL (≈ 24.9 µM)
[2]
  IC50: 7 µg/mL (≈ 17.4 µM)
[3]
  antimalarial activity IC50: 0.063 µg/mL
  antimalarial effect relative to NG-391: about 12 times

## C\C=C(/C=C(C)/C=C/C=C/C=C(\C)C(=O)[C@]12O[C@H]1C(O)(CCO)NC2=O)C(=O)OC (stereo partly drawn) [NG-391]
[1]
  IC50: 5.9 µg/mL (≈ 14.1 µM)
[2]
  IC50: 6.6 µg/mL (≈ 15.8 µM)
[3]
  antimalarial activity IC50: 0.75 µg/mL

## C\C=C(/C=C(C)/C=C/C=C/C=C(\C)C(=O)C1CC(O)(CCO)NC1=O)C(=O)OC (stereo not drawn) [DHLC]
[4]; 0.015 nM, 72 hours
  pf3D7(%) infection rate of cells with malarial parasite: 98.9%
[4]; 0.03 nM, 72 hours
  pf3D7(%) infection rate of cells with malarial parasite: 109.8%
[4]; 0.06 nM, 72 hours
  pf3D7(%) infection rate of cells with malarial parasite: 89.4%
[4]; 0.12 nM, 72 hours
  pf3D7(%) infection rate of cells with malarial parasite: 92.9%
[4]; 0.24 nM, 72 hours
  pf3D7(%) infection rate of cells with malarial parasite: 77.2%
[4]; 0.49 nM, 72 hours
  pf3D7(%) infection rate of cells with malarial parasite: 74.1%
[4]; 0.98 nM, 72 hours
  pf3D7(%) infection rate of cells with malarial parasite: 41.7%
[4]; 1.95 nM, 72 hours
  pf3D7(%) infection rate of cells with malarial parasite: 28.2%
[4]; 3.90 nM, 72 hours
  pf3D7(%) infection rate of cells with malarial parasite: 22.9%
[4]; 7.81 nM, 72 hours
  pf3D7(%) infection rate of cells with malarial parasite: 23.7%
[4]; 15.63 nM, 72 hours
  pf3D7(%) infection rate of cells with malarial parasite: 13.3%
[4]; 31.25 nM, 72 hours
  pf3D7(%) infection rate of cells with malarial parasite: 9.6%
[4]; 62.5 nM, 72 hours
  pf3D7(%) infection rate of cells with malarial parasite: 14.3%
[4]; 125 nM, 72 hours
  pf3D7(%) infection rate of cells with malarial parasite: 10.2%
[4]; 250 nM, 72 hours
  pf3D7(%) infection rate of cells with malarial parasite: 8.5%
[4]; 500 nM, 72 hours
  pf3D7(%) infection rate of cells with malarial parasite: 13.9%
[4]; Plasmodium falciparum, pf3D7 strain, 72 hours, read-out: growth inhibitory activity (IC50 value)
  IC50: 0.65 nM and 0.00026 µg/mL
[4]; versus NG-391 IC50=0.75 μg/ml
  antimalarial activity relative to NG-391: ≥ 1000 times
[4]; versus lucilactaene IC50=0.063 μg/ml
  antimalarial activity relative to lucilactaene: ≥ 100 times
[5]
  antimalarial activity against drug-resistant Plasmodium falciparum (K1): as high as against wild-type Plasmodium falciparum
[1]
  IC50: 21 µg/mL (≈ 52 µM)
[2]
  IC50: 3.4 µg/mL (≈ 8.43 µM)
[6]
  growth inhibitory activity (IC50 value): >30 µg/mL
[6]; Homo sapiens, MKN-74
  IC50: > 30 µg/mL
[7]
  IC50: 0.34 µg/mL (≈ 0.843 µM)
[8]
  growth inhibitory activity (IC50 value): >30 µg/mL
[8]; Homo sapiens
  IC50: > 30 µg/mL
